Publication PMC5806266, “Molecular, biochemical and kinetic analysis of a novel, thermostable lipase (LipSm) from Stenotrophomonas maltophilia Psi-1, the first member of a new bacterial lipase family (XVIII)” (Journal of Biological Research, 2018)

Test system: T1, LipSm
T1 construct: mature form (371 residues, signal peptide cleaved in E. coli BL21(DE3) after LAA), C-terminal 8 extra residues incl; ORF 400 residues
Assay: initial velocities, 4-nitrophenol release at […] nm
Assay type: biochemical, Stenotrophomonas maltophilia
Conditions: 100 mM Tris-HCl pH 8.0, 1% w/v Triton X-100, 5% v/v DMSO, 40 °C

In the case of CC(=O)Oc1ccc([N+](=O)[O-])cc1 [Ac-4-NPh, 4-nitrophenyl acetate], the Km (850 nM enzyme) is reported as 473 µM.

CCCC(=O)Oc1ccc([N+](=O)[O-])cc1 [Bu-4-NPh, 4-nitrophenyl butyrate] gave a Km (850 nM enzyme, limited substrate solubility) of 1930 µM.

Work on CCCCCCCCCCCC(=O)Oc1ccc([N+](=O)[O-])cc1 [La-4-NPh, 4-nitrophenyl laurate] yielded a Km (2200 nM enzyme, limited substrate solubility) of 349 µM.
